Test results from patent US6375979B2 (Somerset Pharmaceuticals, Inc., priority 1995, dated 2002).
Where “and” joins values, the source holds several entries; their conditions need not be identical. Equal values may be shown once. Read-outs that look alike come from different tables or passages of the source.

Assays:
[1] = system: cultured rat mesencephalic cells exposed to NMDA; test: NMDA model of cell death: [3H]-dopamine uptake; conditions: 100 μM NMDA exposure
MAO-A [2] = molecular target: T1, MAO-A (Cavia porcellus, UniProt H0UVA2); test: In vivo MAO-A inhibition in guinea pig cortex (hippocampus) after 5 s.c. treatments; conditions: 10 mg/kg, highest dose tested
T1 sequence (H0UVA2 1-461): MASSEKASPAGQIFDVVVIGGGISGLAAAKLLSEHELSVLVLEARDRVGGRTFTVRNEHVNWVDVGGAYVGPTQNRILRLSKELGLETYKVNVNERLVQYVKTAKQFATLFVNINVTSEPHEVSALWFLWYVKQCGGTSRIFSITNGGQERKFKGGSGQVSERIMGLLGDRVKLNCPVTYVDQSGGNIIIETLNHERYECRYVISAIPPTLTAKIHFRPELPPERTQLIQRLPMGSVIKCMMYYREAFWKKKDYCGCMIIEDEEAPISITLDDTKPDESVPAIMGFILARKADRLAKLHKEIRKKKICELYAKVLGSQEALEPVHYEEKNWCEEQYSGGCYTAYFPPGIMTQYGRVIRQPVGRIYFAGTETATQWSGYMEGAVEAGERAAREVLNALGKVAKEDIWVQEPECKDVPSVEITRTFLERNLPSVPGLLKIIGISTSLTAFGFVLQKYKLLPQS

MAO-B [3] = molecular target: T2, MAO-B (Cavia porcellus, UniProt P58028); test: MAO-B inhibition in guinea pig hippocampal homogenates in vitro; assay type: biochemical; conditions: read-out: MAO-B % Inhibition x ± SEM
T2 construct: by human platelets and/or guinea pig hippocampal homogenates; from tissue; host or cells: guinea pig hippocampus homogenate
T2 sequence (P58028 1-520): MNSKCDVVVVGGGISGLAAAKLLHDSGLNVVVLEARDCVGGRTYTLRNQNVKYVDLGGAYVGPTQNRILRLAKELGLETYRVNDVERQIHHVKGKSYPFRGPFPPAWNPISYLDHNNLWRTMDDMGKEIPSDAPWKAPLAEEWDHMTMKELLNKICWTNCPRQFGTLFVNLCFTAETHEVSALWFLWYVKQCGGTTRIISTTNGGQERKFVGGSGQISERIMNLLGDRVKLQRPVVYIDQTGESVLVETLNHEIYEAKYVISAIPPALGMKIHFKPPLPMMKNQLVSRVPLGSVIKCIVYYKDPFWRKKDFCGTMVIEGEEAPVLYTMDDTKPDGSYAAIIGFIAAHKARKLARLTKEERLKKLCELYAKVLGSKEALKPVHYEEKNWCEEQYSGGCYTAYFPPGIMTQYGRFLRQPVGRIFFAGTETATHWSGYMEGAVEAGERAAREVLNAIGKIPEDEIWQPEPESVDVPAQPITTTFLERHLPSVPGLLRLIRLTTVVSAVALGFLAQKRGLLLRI
Excerpt: Human platelet MAO is comprised exclusively of the type-B isoform of the enzyme. […] The present study also examined the two enantiomers of DMS for inhibitory activity with respect to the MAO-A and MAO-B in guinea pig hippocampal tissue. Guinea pig brain tissue is an excellent animal model for studying brain dopamine metabolism, the enzyme kinetics of the multiple forms of MAO and the inhibitory properties of novel agents that interact with these enzymes. The multiple forms of MAO in this animal species show similar kinetic properties to those found in human brain tissue. Finally, the test agents were administered to guinea pigs and the extent to which they might act as inhibitors of brain MAO in vivo was assessed.
In vitro: The test system utilized the in vitro conversion of specific substrates of MAO-A (^14C-serotonin) and MAO-B (^14C-phenylethylamine) by human platelets and/or guinea pig hippocampal homogenates. […] A percent inhibition was calculated from these values.

MAO-B [4] = molecular target: T2, MAO-B; test: In vivo brain MAO-B inhibition in guinea pig hippocampus after 5 days of administration
Procedure: FIG. 20: In Vivo MAO-B Inhibition in Guinea Pig Hippocampus. […] Animals were then sacrificed and the MAO-B activity in the hippocampus portion of the brain was determined. […] The plots were used to estimate the ID50 dosage for each agent.
Each enantiomer of DMS was administered in vivo by subcutaneous injection once a day for five consecutive days, and inhibition of brain MAO-B activity was then determined.

MAO-A [5] = molecular target: T3, MAO-A (Rattus norvegicus, UniProt P21396)
T3 sequence (P21396 1-526): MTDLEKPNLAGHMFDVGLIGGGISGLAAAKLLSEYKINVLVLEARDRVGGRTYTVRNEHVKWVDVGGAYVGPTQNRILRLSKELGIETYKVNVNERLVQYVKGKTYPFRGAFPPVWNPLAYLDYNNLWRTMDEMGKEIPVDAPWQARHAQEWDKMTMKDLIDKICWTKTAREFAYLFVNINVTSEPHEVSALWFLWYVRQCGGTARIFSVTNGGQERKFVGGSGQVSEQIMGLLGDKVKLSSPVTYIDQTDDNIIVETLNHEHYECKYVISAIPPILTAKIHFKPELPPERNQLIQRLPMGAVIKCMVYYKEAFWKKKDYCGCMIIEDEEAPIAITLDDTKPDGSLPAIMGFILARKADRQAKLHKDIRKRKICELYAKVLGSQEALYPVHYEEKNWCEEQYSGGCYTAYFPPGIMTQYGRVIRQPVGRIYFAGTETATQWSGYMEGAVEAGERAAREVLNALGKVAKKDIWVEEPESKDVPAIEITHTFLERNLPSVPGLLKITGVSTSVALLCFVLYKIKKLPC

[6] = system: cultured embryonic mesencephalic cells; test: Neuronal survival: [3H]dopamine uptake by cultured mesencephalic cells; assay type: cell-based, rat
Excerpt: The amount of uptake by the cultured brain cells corresponds to axonal growth.

[7] = system: cultured rat mesencephalic cells exposed to NMDA; test: NMDA model of cell death: TH immunochemistry; conditions: 100 μM NMDA exposure
Procedure: Rat mesencephalic cell cultures were exposed to 100 μM NMDA and incubated as described above in connection with FIG. 16.

With `C#CCN[C@@H](C)Cc1ccccc1` (single isomer, unassigned) [S(+)DMS, ent-desmethylselegiline] the “Dopamine uptake, % control, Mean” value ([1]; 0.5 μM) was 187.4%, the “Dopamine uptake, % control, individual cultures” value ([1]; 0.5 μM) was 164.2% and 179.0% and 181.6% and 242.7% and 169.2% and the “Dopamine uptake, counts/min, Mean” value ([1]; 0.5 μM) was 12658.2 counts/min. For the same compound, the “Dopamine uptake, counts/min, individual cultures” value ([1]; 0.5 μM) was 11096 counts/min and 12092 counts/min and 12269 counts/min and 16399 counts/min and 11435 counts/min, the “Dopamine uptake, % control, Mean” value ([1]; 5.0 μM) was 246.9% and the “Dopamine uptake, % control, individual cultures” value ([1]; 5.0 μM) was 229.9% and 300.6% and 245.4% and 235.8% and 222.8%. For the same compound, the “Dopamine uptake, counts/min, Mean” value ([1]; 5.0 μM) was 16681.6 counts/min, the “Dopamine uptake, counts/min, individual cultures” value ([1]; 5.0 μM) was 15535 counts/min and 20313 counts/min and 16579 counts/min and 15929 counts/min and 15052 counts/min and the “Dopamine uptake, % control, Mean” value ([1]; 50 μM) was 448.9%. For the same compound, the “Dopamine uptake, % control, individual cultures” value ([1]; 50 μM) was 371.5% and 384.0% and 422.5% and 577.9% and 488.8%, the “Dopamine uptake, counts/min, Mean” value ([1]; 50 μM) was 30331.2 counts/min and the “Dopamine uptake, counts/min, individual cultures” value ([1]; 50 μM) was 25101 counts/min and 25944 counts/min and 28545 counts/min and 39042 counts/min and 33024 counts/min. For the same compound, the “inhibition of MAO-A activity in vivo” value (MAO-A [2]) was “did not cause any observable inhibition”, the inhibition at 1 µM (MAO-B [3]) was 44.4 ± 6.4% and the “times less potent than selegiline, preliminary studies” value (MAO-B [4]; brain MAO-B in vivo) was “about 10 times”. For the same compound, the “times less potent than selegiline as an inhibitor of MAO-B, more recent studies” value (MAO-B [4]; brain MAO-B in vivo, larger group of animals) was “about 50 times” and the ED50 (MAO-B [4]; guinea pig, sc, read-out: ID50 for MAO-B in Guinea Pig Hippocampal Cortex, once a day for 5 days, subcutaneous, larger group of animals, FIG. 20) was roughly 0.5 mg/kg.
desmethylselegiline [R(−)DMS] was tested, and the inhibition (MAO-A [5]; 0.3 µM) was 0%, the inhibition (MAO-A [5]; 1 μM) was 0.7% and the inhibition (MAO-A [5]; 3 µM) was 4.1%. The inhibition (MAO-A [5]; 10 μM) was 11.8%, the inhibition (MAO-A [5]; 100 μM) was 56.1% and the “3H-Dopamine Uptake, % Cont” value ([6]; 0.5 μM) was 200.4%. For the same compound, the “3H-Dopamine Uptake, Mean” value ([6]; 0.5 μM) was 24020 ± 800, the “3H-Dopamine Uptake, % Cont” value ([6]; 5 μM) was 291.5% and the “3H-Dopamine Uptake, Mean” value ([6]; 5 μM) was 34936 ± 2119. For the same compound, the “3H-Dopamine Uptake, % Cont” value ([6]; 50 μM) was 474.3%, the “3H-Dopamine Uptake, Mean” value ([6]; 50 μM) was 56826 ± 2656 and the “Dopamine uptake, % control, Mean” value ([1]; 0.5 μM) was 138.6%. The “Dopamine uptake, % control, individual cultures” value ([1]; 0.5 μM) was 167.3% and 138.9% and 132.9% and 133.6% and 120.4%, the “Dopamine uptake, counts/min, Mean” value ([1]; 0.5 μM) was 9365.2 counts/min and the “Dopamine uptake, counts/min, individual cultures” value ([1]; 0.5 μM) was 11304 counts/min and 9385 counts/min and 8976 counts/min and 9028 counts/min and 8133 counts/min. The “Dopamine uptake, % control, Mean” value ([1]; 5.0 μM) was 177.6%, the “Dopamine uptake, % control, individual cultures” value ([1]; 5.0 μM) was 163.0% and 199.9% and 169.8% and 204.0% and 151.4% and the “Dopamine uptake, counts/min, Mean” value ([1]; 5.0 μM) was 12001.8 counts/min. The “Dopamine uptake, counts/min, individual cultures” value ([1]; 5.0 μM) was 11014 counts/min and 13509 counts/min and 11471 counts/min and 13786 counts/min and 10229 counts/min, the “Dopamine uptake, % control, Mean” value ([1]; 50 μM) was 304.3% and the “Dopamine uptake, % control, individual cultures” value ([1]; 50 μM) was 262.1% and 341.8% and 318.7% and 259.3% and 339.9%. The “Dopamine uptake, counts/min, Mean” value ([1]; 50 μM) was 20562.2 counts/min, the “Dopamine uptake, counts/min, individual cultures” value ([1]; 50 μM) was 17708 counts/min and 23090 counts/min and 21530 counts/min and 17520 counts/min and 22963 counts/min and the “TH Immunochemistry, % control, Mean” value ([7]; 0.5 μM) was 97.3%. For the same compound, the “TH Immunochemistry, % control, individual cultures” value ([7]; 0.5 μM) was 100.9% and 79.6% and 111.5%, the “TH Immunochemistry, cells/cm^2, Mean” value ([7]; 0.5 μM) was 91.67 cells/cm^2 and the “TH Immunochemistry, cells/cm^2, individual cultures” value ([7]; 0.5 μM) was 95.0 cells/cm^2 and 75.0 cells/cm^2 and 105.0 cells/cm^2. For the same compound, the “TH Immunochemistry, % control, Mean” value ([7]; 5.0 μM) was 136.1%, the “TH Immunochemistry, % control, individual cultures” value ([7]; 5.0 μM) was 151.3% and 130.1% and 138.1% and 124.8% and the “TH Immunochemistry, cells/cm^2, Mean” value ([7]; 5.0 μM) was 128.13 cells/cm^2. For the same compound, the “TH Immunochemistry, cells/cm^2, individual cultures” value ([7]; 5.0 μM) was 142.5 cells/cm^2 and 122.5 cells/cm^2 and 130.0 cells/cm^2 and 117.5 cells/cm^2, the “TH Immunochemistry, % control, Mean” value ([7]; 50 μM) was 165.9% and the “TH Immunochemistry, % control, individual cultures” value ([7]; 50 μM) was 252.2% and 180.5% and 108.8% and 122.1%. The “TH Immunochemistry, cells/cm^2, Mean” value ([7]; 50 μM) was 156.25 cells/cm^2 and the “TH Immunochemistry, cells/cm^2, individual cultures” value ([7]; 50 μM) was 237.5 cells/cm^2 and 170.0 cells/cm^2 and 102.5 cells/cm^2 and 115.0 cells/cm^2.
